# Data from patent US9334279B2, “Hepatitis C virus inhibitors” (BRISTOL-MYERS SQUIBB COMPANY, priority 2012, dated 2016).
# Read-outs that look alike come from different tables or passages of the source.
# Assays:
# HCV GT1b(Con1) replicon = assay: HCV replicon luciferase reporter assay, genotype 1b; assay type: cell-based, HCV genotype 1b; conditions: Hepatitis C virus, 72 h, HUH-7 cells, Renilla luciferase, 3 days incubation
# Method in brief: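 HUH-7 cells stably carrying a Con1 GT1b replicon with Renilla luciferase and Ser1179Ile adaptive mutation; 3.0×10^3 cells/well, DMEM 4% FCS, 0.5% DMSO, twenty-point 3-fold titration, 3 days 37 °C. Luminescence 2 h after 7.5 μM EnduRen; EC50 by four-parameter logistic fit. CC50 from multiplexed Cell Titer-Blue fluorescence (8 h).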
# HCV GT1a(H77) replicon = assay: HCV replicon luciferase reporter assay, genotype 1a; assay type: cell-based, HCV genotype 1a; conditions: Hepatitis C virus, 72 h, HUH-7 cells, Renilla luciferase, 3 days incubation
# Method in brief: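 Huh-7 cells stably carried a GT1a(H77) Renilla luciferase replicon with NS3 P1496L and NS5A S2204I adaptive mutations. Luminescence was read after 2 h with 7.5 μM EnduRen, and EC50 came from a four-parameter logistic fit; CC50 came from multiplexed Cell Titer-Blue (8 h).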
smiles,measurement,setting,value
"C[C@@H]1CC/C=C\[C@@H]2C[C@@]2(C(=O)NS(=O)(=O)C2(C)CC2)NC(=O)[C@@H]2C[C@@H](Oc3cc(-c4cccnc4)nc(-c4nccs4)c3)CN2C(=O)[C@@H](NC(=O)OC(C)(C)C(F)(F)F)[C@H](C)C1 [Compound 1050, 1,1,1-trifluoro-2-methylpropan-2-yl ((2R,6S,7R,9R,13aS,14aR,16aS,Z)-7,9-dimethyl-14a-(((1-methylcyclopropyl)sulfonyl)carbamoyl)-5,16-dioxo-2-((6-(thiazol-2-yl)-[2,3′-bipyridin]-4-yl)oxy)-1,2,3,5,6,7,8,9,10,11,13a,14,14a,15,16,16a-hexadecahydrocyclopropa[e]pyrrolo[1,2-a][1,4]diazacyclopentadecin-6-yl)carbamate]",EC50,"HCV GT1b(Con1) replicon; read-out: LE_1b (EC50, range)",0.1 to 0.5 nM
same,EC50,"HCV GT1a(H77) replicon; read-out: LE_1a (EC50, range)",1.01 to 5 nM
"CC(C)Oc1ccc(-c2cc(O[C@@H]3C[C@H]4C(=O)N[C@]5(C(=O)NS(=O)(=O)C6(C)CC6)C[C@H]5/C=C\CC[C@@H](C)C[C@@H](C)[C@H](NC(=O)OC5(C(F)(F)F)CCCOC5)C(=O)N4C3)cc(-c3ccccn3)n2)cc1 (stereo partly drawn) [Compound 1051, 3-(trifluoromethyl)tetrahydro-2H-pyran-3-yl ((2R,6S,7R,9R,13aS,14aR,16aS,Z)-2-((6-(4-isopropoxyphenyl)-[2,2′-bipyridin]-4-yl)oxy)-7,9-dimethyl-14a-(((1-methylcyclopropyl)sulfonyl)carbamoyl)-5,16-dioxo-1,2,3,5,6,7,8,9,10,11,13a,14,14a,15,16,16a-hexadecahydrocyclopropa[e]pyrrolo[1,2-a][1,4]diazacyclopentadecin-6-yl)carbamate]",EC50,"HCV GT1b(Con1) replicon; read-out: LE_1b (EC50, range)",0.1 to 0.5 nM
same,EC50,"HCV GT1a(H77) replicon; read-out: LE_1a (EC50, range)",1.01 to 5 nM
"CC(C)Oc1ccc(-c2cc(O[C@@H]3C[C@H]4C(=O)N[C@]5(C(=O)NS(=O)(=O)C6(C)CC6)C[C@H]5/C=C\CC[C@@H](C)C[C@@H](C)[C@H](NC(=O)OC5(C(F)(F)F)CCCOC5)C(=O)N4C3)cc(-c3cscn3)n2)cc1 (stereo partly drawn) [Compound 1052, 3-(trifluoromethyl)tetrahydro-2H-pyran-3-yl ((2R,6S,7R,9R,13aS,14aR,16aS,Z)-2-((2-(4-isopropoxyphenyl)-6-(thiazol-4-yl)pyridin-4-yl)oxy)-7,9-dimethyl-14a-(((1-methylcyclopropyl)sulfonyl)carbamoyl)-5,16-dioxo-1,2,3,5,6,7,8,9,10,11,13a,14,14a,15,16,16a-hexadecahydrocyclopropa[e]pyrrolo[1,2-a][1,4]diazacyclopentadecin-6-yl)carbamate]",EC50,"HCV GT1b(Con1) replicon; read-out: LE_1b (EC50, range)",0.51 to 1 nM
same,EC50,"HCV GT1a(H77) replicon; read-out: LE_1a (EC50, range)",0.1 to 0.5 nM
"CC[C@@H]1C[C@H](C)CC/C=C\[C@@H]2C[C@@]2(C(=O)NS(=O)(=O)C2CC2)NC(=O)[C@@H]2C[C@@H](Oc3cc(-c4ccc(C(F)(F)F)cc4)nc(-c4nccs4)c3)CN2C(=O)[C@H]1NC(=O)OC(C)(C)C(F)(F)F [Compound 1053, 1,1,1-trifluoro-2-methylpropan-2-yl ((2R,6S,7R,9R,13aS,14aR,16aS,Z)-14a-((cyclopropylsulfonyl)carbamoyl)-7-ethyl-9-methyl-5,16-dioxo-2-((2-(thiazol-2-yl)-6-(4-(trifluoromethyl)phenyl)pyridin-4-yl)oxy)-1,2,3,5,6,7,8,9,10,11,13a,14,14a,15,16,16a-hexadecahydrocyclopropa[e]pyrrolo[1,2-a][1,4]diazacyclopentadecin-6-yl)carbamate]",EC50,"HCV GT1b(Con1) replicon; read-out: LE_1b (EC50, range)",1.01 to 5 nM
same,EC50,"HCV GT1a(H77) replicon; read-out: LE_1a (EC50, range)",1.01 to 5 nM
"CC[C@@H]1C[C@H](C)CC/C=C\[C@@H]2C[C@@]2(C(=O)NS(=O)(=O)C2CC2)NC(=O)[C@@H]2C[C@@H](Oc3cc(-c4ccc(C(F)(F)F)cc4)nc(-c4nccs4)c3)CN2C(=O)[C@H]1NC(=O)OC1(C(F)(F)F)CCCOC1 (stereo partly drawn) [Compound 1054, 3-(trifluoromethyl)tetrahydro-2H-pyran-3-yl ((2R,6S,7R,9R,13aS,14aR,16aS,Z)-14a-((cyclopropylsulfonyl)carbamoyl)-7-ethyl-9-methyl-5,16-dioxo-2-((2-(thiazol-2-yl)-6-(4-(trifluoromethyl)phenyl)pyridin-4-yl)oxy)-1,2,3,5,6,7,8,9,10,11,13a,14,14a,15,16,16a-hexadecahydrocyclopropa[e]pyrrolo[1,2-a][1,4]diazacyclopentadecin-6-yl)carbamate]",EC50,"HCV GT1b(Con1) replicon; read-out: LE_1b (EC50, range)",0.51 to 1 nM
same,EC50,"HCV GT1a(H77) replicon; read-out: LE_1a (EC50, range)",1.01 to 5 nM
"CC[C@@H]1C[C@H](C)CC/C=C\[C@@H]2C[C@@]2(C(=O)NS(=O)(=O)C2(C)CC2)NC(=O)[C@@H]2C[C@@H](Oc3ccnc(-c4nc(C)cs4)c3)CN2C(=O)[C@H]1NC(=O)OC(C)(C)C(F)(F)F [Compound 1055, 1,1,1-trifluoro-2-methylpropan-2-yl ((2R,6S,7R,9R,13aS,14aR,16aS,Z)-7-ethyl-9-methyl-14a-(((1-methylcyclopropyl)sulfonyl)carbamoyl)-2-((2-(4-methylthiazol-2-yl)pyridin-4-yl)oxy)-5,16-dioxo-1,2,3,5,6,7,8,9,10,11,13a,14,14a,15,16,16a-hexadecahydrocyclopropa[e]pyrrolo[1,2-a][1,4]diazacyclopentadecin-6-yl)carbamate]",EC50,"HCV GT1b(Con1) replicon; read-out: LE_1b (EC50, range)",1.01 to 5 nM
same,EC50,"HCV GT1a(H77) replicon; read-out: LE_1a (EC50, range)",1.01 to 5 nM
"CC[C@@H]1C[C@H](C)CC/C=C\[C@@H]2C[C@@]2(C(=O)NS(=O)(=O)C2CC2)NC(=O)[C@@H]2C[C@@H](Oc3cc(OC)nc(-c4nccs4)c3)CN2C(=O)[C@H]1NC(=O)OC(C)(C)C(F)(F)F [Compound 1056, 1,1,1-trifluoro-2-methylpropan-2-yl ((2R,6S,7R,9R,13aS,14aR,16aS,Z)-14a-((cyclopropylsulfonyl)carbamoyl)-7-ethyl-2-((2-methoxy-6-(thiazol-2-yl)pyridin-4-yl)oxy)-9-methyl-5,16-dioxo-1,2,3,5,6,7,8,9,10,11,13a,14,14a,15,16,16a-hexadecahydrocyclopropa[e]pyrrolo[1,2-a][1,4]diazacyclopentadecin-6-yl)carbamate]",EC50,"HCV GT1b(Con1) replicon; read-out: LE_1b (EC50, range)",1.01 to 5 nM
same,EC50,"HCV GT1a(H77) replicon; read-out: LE_1a (EC50, range)",1.01 to 5 nM
"CC[C@@H]1C[C@H](C)CC/C=C\[C@@H]2C[C@@]2(C(=O)NS(=O)(=O)C2CC2)NC(=O)[C@@H]2C[C@@H](Oc3cc(-c4ccc(OC(C)C)cc4)nc(-c4nccs4)c3)CN2C(=O)[C@H]1NC(=O)O[C@@H]1C[C@@H]2C[C@@H]2C1 [Compound 1057, (1R,3r,5S)-bicyclo[3.1.0]hexan-3-yl ((2R,6S,7R,9R,13aS,14aR,16aS,Z)-14a-((cyclopropylsulfonyl)carbamoyl)-7-ethyl-2-((2-(4-isopropoxyphenyl)-6-(thiazol-2-yl)pyridin-4-yl)oxy)-9-methyl-5,16-dioxo-1,2,3,5,6,7,8,9,10,11,13a,14,14a,15,16,16a-hexadecahydrocyclopropa[e]pyrrolo[1,2-a][1,4]diazacyclopentadecin-6-yl)carbamate]",EC50,"HCV GT1b(Con1) replicon; read-out: LE_1b (EC50, range)",1.01 to 5 nM
same,EC50,"HCV GT1a(H77) replicon; read-out: LE_1a (EC50, range)",1.01 to 5 nM
"Cc1ccc(-c2cc(O[C@@H]3C[C@H]4C(=O)N[C@]5(C(=O)NS(=O)(=O)C6(C)CC6)C[C@H]5/C=C\CC[C@@H](C)C[C@@H](C)[C@H](NC(=O)OC(C)(C)C(F)(F)F)C(=O)N4C3)cc(-c3nccs3)n2)cc1 [Compound 1059, 1,1,1-trifluoro-2-methylpropan-2-yl ((2R,6S,7R,9R,13aS,14aR,16aS,Z)-7,9-dimethyl-14a-(((1-methylcyclopropyl)sulfonyl)carbamoyl)-5,16-dioxo-2-((2-(thiazol-2-yl)-6-(p-tolyl)pyridin-4-yl)oxy)-1,2,3,5,6,7,8,9,10,11,13a,14,14a,15,16,16a-hexadecahydrocyclopropa[e]pyrrolo[1,2-a][1,4]diazacyclopentadecin-6-yl)carbamate]",EC50,"HCV GT1b(Con1) replicon; read-out: LE_1b (EC50, range)",0.51 to 1 nM
same,EC50,"HCV GT1a(H77) replicon; read-out: LE_1a (EC50, range)",0.51 to 1 nM
"C[C@@H]1CC/C=C\[C@@H]2C[C@@]2(C(=O)NS(=O)(=O)C2(C)CC2)NC(=O)[C@@H]2C[C@@H](Oc3cc(-c4ccccc4)nc(-c4nccs4)c3)CN2C(=O)[C@@H](NC(=O)OC(C)(C)C(F)(F)F)[C@H](C)C1 [Compound 1060, 1,1,1-trifluoro-2-methylpropan-2-yl ((2R,6S,7R,9R,13aS,14aR,16aS,Z)-7,9-dimethyl-14a-(((1-methylcyclopropyl)sulfonyl)carbamoyl)-5,16-dioxo-2-((2-phenyl-6-(thiazol-2-yl)pyridin-4-yl)oxy)-1,2,3,5,6,7,8,9,10,11,13a,14,14a,15,16,16a-hexadecahydrocyclopropa[e]pyrrolo[1,2-a][1,4]diazacyclopentadecin-6-yl)carbamate]",EC50,"HCV GT1b(Con1) replicon; read-out: LE_1b (EC50, range)",0.1 to 0.5 nM
same,EC50,"HCV GT1a(H77) replicon; read-out: LE_1a (EC50, range)",0.51 to 1 nM
"CC[C@@H]1C[C@H](C)CC/C=C\[C@@H]2C[C@@]2(C(=O)NS(=O)(=O)C2CC2)NC(=O)[C@@H]2C[C@@H](Oc3ccc(-c4nccs4)cn3)CN2C(=O)[C@H]1NC(=O)OC(C)(C)C(F)(F)F [Compound 1063, 1,1,1-trifluoro-2-methylpropan-2-yl ((2R,6S,7R,9R,13aS,14aR,16aS,Z)-14a-((cyclopropylsulfonyl)carbamoyl)-7-ethyl-9-methyl-5,16-dioxo-2-((5-(thiazol-2-yl)pyridin-2-yl)oxy)-1,2,3,5,6,7,8,9,10,11,13a,14,14a,15,16,16a-hexadecahydrocyclopropa[e]pyrrolo[1,2-a][1,4]diazacyclopentadecin-6-yl)carbamate]",EC50,HCV GT1b(Con1) replicon; read-out: LE_1b (EC50),3.51 nM
same,EC50,"HCV GT1b(Con1) replicon; read-out: LE_1b (EC50, range)",1.01 to 5 nM
same,EC50,HCV GT1a(H77) replicon; read-out: LE_1a (EC50),16.7 nM
same,EC50,"HCV GT1a(H77) replicon; read-out: LE_1a (EC50, range)",5.01 to 35 nM
